This is an account of results in the Deep4Chem optical property database.

This series can be described thus: solvent given as SMILES.

Values joined by “and” are separate entries in the source; they are usually repeats but may differ in a detail not shown here. Equal values may be shown once.

`CC1=CS[C@]2(C)C1=C1C(=C3C(C)=C(c4ccc(-c5nc(-c6ccccc6)c(-c6ccccc6)[nH]5)cc4)S[C@]32C)C(F)(F)C(F)(F)C1(F)F`: the absorption maximum (in C1CCOC1) is reported as 565 nm.

Turning to `CCCCCCN1C(=O)C(c2ccc(-n3c4ccccc4c4ccccc43)cc2)=C(c2ccc(-n3c4ccccc4c4ccccc43)cc2)C1=O`, the absorption maximum reads like this: (in ClC(Cl)Cl) 421 nm; (in c1ccc2c(c1)c1ccccc1n2-c1ccc(-c2ccc(-n3c4ccccc4c4ccccc43)cc2)cc1) 426 nm.

For the setting “in CO”, `CC1(C)C(/C=C/C2=C(Cl)C(=C/C=C3/N(Cc4ccc([N+](=O)[O-])cc4)c4ccccc4C3(C)C)/CCC2)=[N+](Cc2ccc([N+](=O)[O-])cc2)c2ccccc21` had an absorption maximum of 785 nm.

In the case of `BrC1=CN2C[n+]3cc(Br)c4ccccc4c3N=C2c2ccccc21`, the absorption maximum (in CO) was 457 nm.

Compound `CCN1CCN(c2ccc(/N=N/c3ccc(C(=O)OC)cc3)cc2)CC1` gave an absorption maximum (in CCOC(C)=O) of 419 nm.

For the compound `Cc1ccc(-c2cc(/C=C/c3ccc(N(c4ccccc4)c4ccccc4)cc3)c(C#N)c(N3CCCCC3)c2)cc1`, where the note is “in CS(C)=O”, the absorption maximum turned out to be 401 nm.

Where the note is “in C1CCOC1”, `CC(C)(C)c1ccc(-c2nc(-c3ccc(-n4c5ccccc5c5c6oc7ccccc7c6ccc54)cc3)nc(-c3ccc(C(C)(C)C)cc3)n2)cc1` showed an absorption maximum of 354.46 nm.

As for `CC1=CC(C)=[N+]2C1=Cc1c3ccccc3c(-c3[nH]c(C)cc3C)n1[B-]2(F)F`, the absorption maximum (in ClCCl) was 609 nm.

`Cc1c(-c2ccc(N3c4ccccc4C(C)(C)c4ccccc43)cc2)ncnc1-c1ccc(N2c3ccccc3C(C)(C)c3ccccc32)cc1` had an absorption maximum (in Cc1ccccc1) of 367.5 nm.

For the setting “in CO”, `Cc1ccc(CN2/C(=C/C=C3\CCCC(/C=C/C4=[N+](Cc5ccc(C)cc5)c5ccccc5C4(C)C)=C3Cl)C(C)(C)c3ccccc32)cc1` gave an absorption maximum of 785 nm.

On to `c1ccc(-c2nc(-c3ccccc3)c(-c3ccccc3)[nH]2)cc1`, for which the absorption maximum (in CC#N) is 311.5 nm and 312 nm; the absorption maximum (in CO) is listed as 311.5 nm.

For `COc1ccc2oc(-c3cc4cc(OC)ccc4oc3=O)cc2c1`, the absorption maximum (in CC#N) is 382 nm; the absorption maximum (in CCOC(C)=O) was 384 nm; the absorption maximum (in CS(C)=O) is recorded as 389 nm; the absorption maximum (in Cc1ccccc1) was found to be 388 nm; the absorption maximum (in O) is recorded as 347 nm.

Turning to `N#CC(C#N)=Cc1cn(-c2ccccc2)nc1-c1ccccc1`, the absorption maximum runs as follows: (in C1CCOC1) 354 nm; (in C1COCCO1) 353 nm; (in CCO) 354 nm; (in CCOC(C)=O) 352 nm; (in CN(C)C=O) 355 nm; (in CO) 351 nm. The absorption maximum reads like this: (in CS(C)=O) 356 nm; (in Cc1ccccc1) 361 nm; (in ClC(Cl)Cl) 359 nm; (in ClCCl) 357 nm.

The compound `C=Cc1cccc(OC)c1` showed an absorption maximum (in C1CCCCC1) of 295 nm.

`Cc1ccc2cc3cc(C)ncc3cc2c1`: the absorption maximum (in CCO) came to 383.73 nm.

Take `[NH3+]c1ccc2ccc(O)cc2c1`: the absorption maximum (in O) turned out to be 328 nm.

Turning to `O=S1(=O)c2ccccc2C2(c3cc(-c4ccc(N(c5ccccc5)c5ccccc5)cc4)ccc3-c3ccc(-c4ccc(N(c5ccccc5)c5ccccc5)cc4)cc32)c2ccccc21`, the absorption maximum (in ClCCl) is reported as 380 nm.

The compound `CC(C)(C)c1ccc2c(c1)c1cc(C(C)(C)C)ccc1n2-c1cc(N2c3ccccc3C(c3ccccc3)(c3ccccc3)c3ccccc32)cc(-n2c3ccc(C(C)(C)C)cc3c3cc(C(C)(C)C)ccc32)c1C#N` had an absorption maximum (in Cc1ccccc1) of 378 nm.

For `CC1=C(C(C)(C)C)C(C)=[N+]2C1=C(C)c1c(C)c(C(C)(C)C)c(C)n1[B-]2(F)F`, the absorption maximum was 529 nm (in C1CCCCC1); 525.1 nm (in C1CCOC1); 525.1 nm (in C1COCCO1); 520.8 nm (in CC#N); 522.5 nm (in CC(C)=O); 527.5 nm (in CC(C)CC(C)(C)C). This compound showed an absorption maximum (in CCC(C)C) of 527.1 nm; an absorption maximum (in CCCC(C)=O) of 523.7 nm; an absorption maximum (in CCCCCC) of 527.5 nm; an absorption maximum (in CCCCCCCCO) of 527.3 nm; an absorption maximum (in CCCCCCO) of 526.7 nm; an absorption maximum (in CCCCO) of 526.1 nm. Also, the absorption maximum runs as follows: (in CCCCOC(C)=O) 524.3 nm; (in CCCO) 525.3 nm; (in CCO) 524.3 nm; (in CCOC(C)=O) 523.2 nm; (in CCOCC) 525.1 nm; (in CN(C)C=O) 524 nm. For the same compound, the absorption maximum stood at 522.3 nm (in CNC=O), 522.9 nm (in CO), 522.5 nm (in COC(C)=O) and 521.6 nm (in OCC(F)(F)F).

As to `CCN(CC)c1ccc(/N=N/c2nc3ccc(Br)cc3s2)cc1`, the absorption maximum amounted to 520 nm (in CC#N) and 518 nm (in ClCCl).

Compound `COc1ccc2c(c1)c1cc(OC)ccc1n2-c1cccc(-n2c3ccc(OC)cc3c3cc(OC)ccc32)c1C#N` had an absorption maximum (in Cc1ccccc1) of 391 nm.

In the case of `CCCCCC#Cc1cc(C#CCCCCC)c2ccc3c(C(=O)c4ccccc4)cc(C#CCCCCC)c4ccc1c2c43`, the absorption maximum (in ClCCl) stood at 416 nm.

As for `COC(=O)c1cc(=O)n(C)c2cc(-c3ccccc3)sc12`, the absorption maximum reads like this: (in CC#N) 392 nm; (in ClCCl) 394 nm.

Regarding `CCN(CC)c1ccc(/N=N/c2nc3ccc([N+](=O)[O-])cc3s2)cc1`, the absorption maximum reads like this: (in CC#N) 546 nm; (in ClCCl) 549 nm.

Consider `C1=C(c2ccccc2)B(c2ccccc2)Nc2c1ccc1ccccc21`, for which, where the note is “in C1CCCCC1”, the absorption maximum came out at 365 nm.

Regarding `c1ccc(N(c2ccccc2)c2ccc(-c3cncs3)cc2)cc1`, the absorption maximum (in CO) is 346 nm.

`c1ccc(N(c2ccccc2)c2ccc(-c3ncc(-c4ccc(-c5ccc(-c6cnc(-c7ccc(N(c8ccccc8)c8ccccc8)cc7)s6)s5)s4)s3)cc2)cc1` showed an absorption maximum (in CO) of 425 nm.

For the setting “in ClCCl”, `COc1ccc(N(c2ccc(OC)cc2)c2ccc(-c3ccc4nc5ccccc5c(=O)n4c3)cc2)cc1` came in with an absorption maximum of 361 nm.

As to `O=C1NC(=O)c2c1c1c3ccccc3[nH]c1c1[nH]c3ccccc3c21`, the absorption maximum is, setting by setting: (in C1CCOC1) 400 nm; (in CC#N) 402 nm; (in CC(C)OC(C)C) 391 nm; (in CCCCOCCCC) 393 nm; (in CCO) 405 nm; (in CCOC(C)=O) 398 nm. The absorption maximum reads like this: (in CN(C)C=O) 409 nm; (in Cc1ccccc1) 398 nm; (in ClCCl) 401 nm.

`CC(C)(C)c1ccc(-c2nc3c4ccc(-c5cc6ccccc6c6ccccc56)cc4c4cc(-c5cc6ccccc6c6ccccc56)ccc4c3n2-c2ccc(C(C)(C)C)cc2)cc1`: the absorption maximum is on record as 325 nm (in C1CCOC1); 325 nm (in C1COCCO1); 324 nm (in CC#N); 325 nm (in CCCCCC); 326 nm (in CCCCOCCCC); 325 nm (in CCN(CC)CC). Also, the absorption maximum is 324 nm (in CCOC(C)=O); 234 nm (in CCOCC); 328 nm (in CN(C)C=O); 327 nm (in Cc1ccccc1); 327 nm (in ClC=C(Cl)Cl); 328 nm (in ClCCl).

On to `CCN(CC)c1ccc2n1[B-](F)(F)[N+]1=CC(/C=C/C(=O)OC(C)(C)C)=CC1=C2c1c(C)cc(C)cc1C`, for which the absorption maximum (in ClCCl) was 478 nm.
